Data: publication PMC3102611, “The inhibition of the mammalian DNA methyltransferase 3a (Dnmt3a) by dietary black tea and coffee polyphenols” (2011)

Target: T1, Dnmt3a (Mus musculus, UniProt O88508)
T1 construct: C-terminal catalytic domain (Dnmt3a-C)
Assay: Biotin-avidin DNA methylation kinetics assay with [methyl-3H]AdoMet, purified Dnmt3a-C
Assay type: biochemical

T1 sequence (O88508 608-908 limits assumed): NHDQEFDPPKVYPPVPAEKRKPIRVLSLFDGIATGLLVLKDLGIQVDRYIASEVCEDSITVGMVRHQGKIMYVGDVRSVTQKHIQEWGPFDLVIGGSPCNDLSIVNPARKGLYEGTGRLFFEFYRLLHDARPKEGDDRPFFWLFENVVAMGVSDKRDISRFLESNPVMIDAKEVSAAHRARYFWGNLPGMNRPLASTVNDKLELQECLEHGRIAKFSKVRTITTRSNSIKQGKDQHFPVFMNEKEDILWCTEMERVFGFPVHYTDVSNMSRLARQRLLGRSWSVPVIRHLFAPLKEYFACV

IC50: 35 µM
Compound: COC(=O)[C@]1(OC(=O)/C=C/c2ccc(O)c(O)c2)C[C@H](OC(=O)/C=C/c2ccc(O)c(O)c2)[C@H]2O[C@@](C)(OC)[C@](C)(OC)O[C@@H]2C1 [N12, 1,3-dicaffeoyl-muco-quinic acid diacetal]
